target: Myc proto-oncogene protein (Homo sapiens, UniProt P01106); assay: Inhibition of human c-Myc assessed as reduction in c-Myc/Max/Ebox DNA complex formation using pre-formed complex of c-Myc and biotinylated DNA containing single Ebox-sequence followed by compound addition and further addition of his6-tagged c-Max and incubated for 2 hrs by AlphaScreen assay
Sequence (P01106 whole entry): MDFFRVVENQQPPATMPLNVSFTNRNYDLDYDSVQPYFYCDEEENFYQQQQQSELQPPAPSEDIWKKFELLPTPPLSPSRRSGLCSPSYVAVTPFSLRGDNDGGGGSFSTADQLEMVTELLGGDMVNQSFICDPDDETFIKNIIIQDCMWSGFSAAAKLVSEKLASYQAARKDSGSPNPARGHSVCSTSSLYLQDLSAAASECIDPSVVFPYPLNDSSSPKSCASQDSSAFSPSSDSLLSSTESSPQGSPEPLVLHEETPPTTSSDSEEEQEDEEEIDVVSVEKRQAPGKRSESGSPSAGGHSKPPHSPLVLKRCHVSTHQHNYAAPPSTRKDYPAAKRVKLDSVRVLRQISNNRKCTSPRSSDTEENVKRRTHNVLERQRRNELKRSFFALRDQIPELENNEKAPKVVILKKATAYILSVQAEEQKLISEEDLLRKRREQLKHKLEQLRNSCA

Row | IC50 | Structure (SMILES)
1 | > 10 µM | COCCNCCC(=O)Nc1sc2c(c1-c1nc3cc(-c4cccnc4OC)ccc3s1)CCNC2
2 | < 0.3 µM | O=C(Nc1sc2c(c1-c1nc3ccccc3s1)CCNC2)C1CNC1
3 | > 10 µM | CC(C)N1CCc2c(sc(NC(=O)CCNc3ccccc3)c2-c2nc3ccccc3s2)C1
4 | > 10 µM | COCCNCCC(=O)Nc1sc2c(c1-c1nc3cc(-c4ccc5c(c4)OCO5)ccc3s1)CCNC2
5 | 1 to 10 µM | CCOc1ccc(-c2ccc3nc(-c4c(NC(=O)CCNCCOC)sc5c4CCNC5)sc3c2)cn1
6 | 0.3 to 1 µM | COCCNCCC(=O)Nc1sc2c(c1-c1nc3ccc(-c4ccc(C(=O)N(C)C)cc4F)cc3s1)CCNC2
7 | > 10 µM | COCCNCCC(=O)Nc1sc2c(c1-c1nc3ccc(-c4cccc5cccnc45)cc3s1)CCNC2
8 | 0.3 to 1 µM | COCCNCCC(=O)Nc1sc2c(c1-c1nc3c(C)cccc3o1)CCNC2
9 | 1 to 10 µM | COCCNCCC(=O)Nc1sc2c(c1-c1nc3ccc(-c4cnn(Cc5ccccc5)c4)cc3s1)CCNC2
10 | 0.3 to 1 µM | O=C(CC1COCCN1)Nc1sc2c(c1-c1nc3ccccc3s1)CCNC2 (centres undefined)
11 | < 0.3 µM | COc1ccc(-c2ccc3sc(-c4c(NC(=O)CCNC(C)C)sc5c4CCNC5)nc3c2)cc1
12 | 1 to 10 µM | CC(C)N1CCc2c(sc(NC(=O)CCNc3cccc(O)c3)c2-c2nc3ccccc3s2)C1
13 | > 10 µM | COCCNCCC(=O)Nc1sc2c(c1-c1nc3ccc(-c4ccc5c(c4)OCO5)cc3s1)CCNC2
14 | > 10 µM | CNS(=O)(=O)c1ccccc1-c1ccc2nc(-c3c(NC(=O)CCNCCOC)sc4c3CCNC4)sc2c1
15 | > 10 µM | CC(C)N1CCc2c(sc(NC(=O)CCNc3cccc(F)c3)c2-c2nc3ccccc3s2)C1
16 | > 10 µM | COCCNCCC(=O)Nc1sc2c(c1-c1nc3ccc(-c4c(C)nn(C)c4C)cc3s1)CCNC2
17 | 1 to 10 µM | COCCNCCC(=O)Nc1sc2c(c1-c1nc3ccc(-c4cccc(C#N)c4)cc3s1)CCNC2
18 | > 10 µM | COCCNCCC(=O)Nc1sc2c(c1-c1nc3ccc(-c4ccc(C)c(C#N)c4)cc3s1)CCNC2
19 | > 10 µM | COCCNCCC(=O)Nc1sc2c(c1-c1nc3ccc(-c4ccc(OC)nc4C)cc3s1)CCNC2
20 | > 10 µM | COCCNCCC(=O)Nc1sc2c(c1-c1nc3cc(-c4ccccc4S(C)(=O)=O)ccc3s1)CCNC2
21 | 1 to 10 µM | COCCNCCC(=O)Nc1sc2c(c1-c1nc3ccc(-c4ccc(C(=O)OC)nc4)cc3s1)CCNC2
22 | > 10 µM | COCCNCCC(=O)Nc1sc2c(c1-c1nc3cc(-c4ccc(C)c(C#N)c4)ccc3s1)CCNC2

Row | IC50 | Structure (SMILES)
23 | 1 to 10 µM | COCCNCCC(=O)Nc1sc2c(c1-c1nc3cc(-c4ccc(C)nc4OC)ccc3s1)CCNC2
24 | > 10 µM | COCCNCCC(=O)Nc1sc2c(c1-c1nc3ccc(-c4cccc(C(F)(F)F)c4)cc3s1)CCNC2
25 | > 10 µM | COCCNCCC(=O)Nc1sc2c(c1-c1nc3ccc(-c4ccc5c(c4)NC(=O)CO5)cc3s1)CCNC2
26 | > 10 µM | COCCNCCC(=O)Nc1sc2c(c1-c1nc3cc(-c4ccc(O)c(F)c4)ccc3s1)CCNC2
27 | > 10 µM | COCCNCCC(=O)Nc1sc2c(c1-c1nc3ccc(-c4cnc(N)c(C(F)(F)F)c4)cc3s1)CCNC2
28 | 1 to 10 µM | COCCNCCC(=O)Nc1sc2c(c1-c1nc3ccc(-c4cncc(OC)c4)cc3s1)CCNC2
29 | 1 to 10 µM | COCCNCCC(=O)Nc1sc2c(c1-c1nc3cc(-c4cnc(OC)c(OC)c4)ccc3s1)CCNC2
30 | 1 to 10 µM | CC(NCCC(=O)Nc1sc2c(c1-c1nc3ccccc3s1)CCN(C(C)C)C2)c1ccncc1 (centres undefined)
31 | > 10 µM | COCCNCCC(=O)Nc1sc2c(c1-c1nc3cc(-c4cccc(C(F)(F)F)c4)ccc3s1)CCNC2
32 | > 10 µM | CCOc1ncccc1-c1ccc2nc(-c3c(NC(=O)CCNCCOC)sc4c3CCNC4)sc2c1
33 | 1 to 10 µM | CNC(=O)Nc1ccc(-c2ccc3sc(-c4c(NC(=O)CCNCCOC)sc5c4CCNC5)nc3c2)cc1
34 | 0.3 to 1 µM | COCCNCCC(=O)Nc1sc2c(c1-c1nc3ccc(-c4ccc(C(=O)N5CCOCC5)cc4)cc3s1)CCNC2
35 | > 10 µM | COCCNCCC(=O)Nc1sc2c(c1-c1nc3ccc(-c4ccncc4Cl)cc3s1)CCNC2
36 | 1 to 10 µM | COCCNCCC(=O)Nc1sc2c(c1-c1nc3cc(-c4c(C)n[nH]c4C)ccc3s1)CCNC2
37 | > 10 µM | COCCNCCC(=O)Nc1sc2c(c1-c1nc3ccc(-c4cnccc4OC)cc3s1)CCNC2
38 | 0.3 to 1 µM | O=C(CC1CCCN1)Nc1sc2c(c1-c1nc3ccccc3s1)CCNC2 (centres undefined)
39 | > 10 µM | COCCNCCC(=O)Nc1sc2c(c1-c1nc3ccc(-c4ccccc4S(C)(=O)=O)cc3s1)CCNC2
40 | 1 to 10 µM | COCCNCCC(=O)Nc1sc2c(c1-c1nc3cc(-c4cccc(C(=O)N5CCN(C)CC5)c4)ccc3s1)CCNC2
41 | 1 to 10 µM | COCCNCCC(=O)Nc1sc2c(c1-c1nc3ccc(-c4cccnc4OC)cc3s1)CCNC2
42 | 1 to 10 µM | COCCNCCC(=O)Nc1sc2c(c1-c1nc3ccc(-c4cnc(OC)c(OC)c4)cc3s1)CCNC2
43 | 1 to 10 µM | COc1ccccc1-c1ccc2sc(-c3c(NC(=O)CCNC(C)C)sc4c3CCNC4)nc2c1
44 | > 10 µM | COCCNCCC(=O)Nc1sc2c(c1-c1nc3ccc(-c4ccc(O)c(F)c4)cc3s1)CCNC2

Row | IC50 | Structure (SMILES)
45 | 0.3 to 1 µM | COCCNCCC(=O)Nc1sc2c(c1-c1nc3cc(-c4ccc5cnn(C)c5c4)ccc3s1)CCNC2
46 | > 10 µM | CNc1ncc2cc(-c3ccc4sc(-c5c(NC(=O)CCNCCOC)sc6c5CCNC6)nc4c3)ccc2n1
47 | > 10 µM | COCCNCCC(=O)Nc1sc2c(c1-c1nc3ccc(-c4ccc(OC(C)C)nc4)cc3s1)CCNC2
48 | > 10 µM | COCCNCCC(=O)Nc1sc2c(c1-c1nc3ccc(-c4ccc(F)nc4F)cc3s1)CCNC2
49 | 1 to 10 µM | COc1cccc(-c2ccc3sc(-c4c(NC(=O)CCNC(C)C)sc5c4CCNC5)nc3c2)c1
50 | > 10 µM | CC(C)N1CCc2c(sc(NC(=O)CCN3CCc4ccccc4C3)c2-c2nc3ccccc3s2)C1
51 | 0.3 to 1 µM | CC(=O)Nc1ccc(-c2ccc3sc(-c4c(NC(=O)CCNC(C)C)sc5c4CCNC5)nc3c2)cc1
52 | 1 to 10 µM | CC(C)N1CCc2c(sc(NC(=O)CCNc3cccnc3)c2-c2nc3ccccc3s2)C1
53 | > 10 µM | CCC(C)N(CCC(=O)Nc1sc2c(c1-c1nc3ccccc3s1)CCN(C(C)C)C2)C(=O)OC(C)(C)C (centres undefined)
54 | > 10 µM | COCCNCCC(=O)Nc1sc2c(c1-c1nc3ccc(-c4c(F)cccc4F)cc3s1)CCNC2
55 | 1 to 10 µM | Cc1cc(C)c(CNCCC(=O)Nc2sc3c(c2-c2nc4ccccc4s2)CCN(C(C)C)C3)c(=O)[nH]1
56 | > 10 µM | COCCNCCC(=O)Nc1sc2c(c1-c1nc3cc(-c4ccc(OC)c(OC)c4)ccc3s1)CCNC2
57 | > 10 µM | COCCNCCC(=O)Nc1sc2c(c1-c1nc3ccc(-c4ccc5cnn(C)c5c4)cc3s1)CCNC2
58 | > 10 µM | CC(C)N1CCc2c(sc(NC(=O)CCNc3ccc(-c4nnn[nH]4)cc3)c2-c2nc3ccccc3s2)C1
59 | > 10 µM | COCCNCCC(=O)Nc1sc2c(c1-c1nc3cc(-c4ccncc4Cl)ccc3s1)CCNC2
60 | > 10 µM | COCCNCCC(=O)Nc1sc2c(c1-c1nc3ccc(-c4ccc(C(F)(F)F)nc4)cc3s1)CCNC2
61 | 1 to 10 µM | COCCNCCC(=O)Nc1sc2c(c1-c1nc3cc(-c4ccccc4)ccc3s1)CCNC2
62 | < 0.3 µM | COCCNCCC(=O)Nc1sc2c(c1-c1nc3cc(-c4ccc(N5CCNCC5)nc4)ccc3s1)CCNC2
63 | > 10 µM | COCCNCCC(=O)Nc1sc2c(c1-c1nc3ccc(-c4cccnc4C)cc3s1)CCNC2
64 | > 10 µM | COCCNCCC(=O)Nc1sc2c(c1-c1nc3ccc(-c4cnc(N5CCOCC5)nc4)cc3s1)CCNC2
65 | > 10 µM | COCCNCCC(=O)Nc1sc2c(c1-c1nc3ccc(-c4c(C)n[nH]c4C)cc3s1)CCNC2
66 | > 10 µM | COCCNCCC(=O)Nc1sc2c(c1-c1nc3ccc(-c4ccccc4O)cc3s1)CCNC2

Row | IC50 | Structure (SMILES)
67 | > 10 µM | COCCNCCC(=O)Nc1sc2c(c1-c1nc3ccc(-c4ccc(N5CCOCC5)nc4)cc3s1)CCNC2
68 | > 10 µM | COCCNCCC(=O)Nc1sc2c(c1-c1nc3cc(-c4ccc(S(=O)(=O)NC5CC5)cc4)ccc3s1)CCNC2
69 | > 10 µM | COCCNCCC(=O)Nc1sc2c(c1-c1nc3cc(-c4ccc(OC)nc4C)ccc3s1)CCNC2
70 | > 10 µM | COCCNCCC(=O)Nc1sc2c(c1-c1nc3cc(-c4cccc5cccnc45)ccc3s1)CCNC2
71 | > 10 µM | CNS(=O)(=O)c1ccccc1-c1ccc2sc(-c3c(NC(=O)CCNCCOC)sc4c3CCNC4)nc2c1
72 | > 10 µM | COCCNCCC(=O)Nc1sc2c(c1-c1nc3ccc(-c4ccc(C)nc4OC)cc3s1)CCNC2
73 | > 10 µM | COCCNCCC(=O)Nc1sc2c(c1-c1nc3ccc(-c4ccc5ncccc5c4)cc3s1)CCNC2
74 | > 10 µM | COCCNCCC(=O)Nc1sc2c(c1-c1nc3ccc(-c4ccnc(C(F)(F)F)c4)cc3s1)CCNC2
75 | 0.3 to 1 µM | CC(C)NCCC(=O)Nc1sc2c(c1-c1nc3cc(-c4ccccc4)ccc3s1)CCNC2
76 | > 10 µM | COCCNCCC(=O)Nc1sc2c(c1-c1nc3ccc(-c4cc(F)cnc4OC)cc3s1)CCNC2
77 | > 10 µM | COCCNCCC(=O)Nc1sc2c(c1-c1nc3ccc(-c4ccc(S(=O)(=O)NC5CC5)cc4)cc3s1)CCNC2
78 | 1 to 10 µM | COc1cccc(NCCC(=O)Nc2sc3c(c2-c2nc4ccccc4s2)CCN(C(C)C)C3)c1
79 | > 10 µM | COCCNCCC(=O)Nc1sc2c(c1-c1nc3cc(-c4ccc5c(=O)[nH]ccc5c4)ccc3s1)CCNC2
80 | 1 to 10 µM | COCCNCCC(=O)Nc1sc2c(c1-c1nc3cc(-c4cccc5[nH]ncc45)ccc3s1)CCNC2
81 | > 10 µM | COCCNCCC(=O)Nc1sc2c(c1-c1nc3ccc(-c4cncc(OCCOC)c4)cc3s1)CCNC2
82 | 1 to 10 µM | COCCNCCC(=O)Nc1sc2c(c1-c1nc3ccc(-c4ccc5ncnn5c4)cc3s1)CCNC2
83 | < 0.3 µM | CC(C)NCCC(=O)Nc1sc2c(c1-c1nc3cc(-c4nn[nH]n4)ccc3s1)CCNC2
84 | < 0.3 µM | CC(C)NCCC(=O)Nc1sc2c(c1-c1nc3cc(-n4cncn4)ccc3s1)CCNC2
85 | > 10 µM | COCCNCCC(=O)Nc1sc2c(c1-c1nc3cc(-c4ccc5c(c4)NC(=O)C5)ccc3s1)CCNC2
86 | < 0.3 µM | CC(C)NCCC(=O)Nc1sc2c(c1-c1nc3cc(C#N)ccc3s1)CCNC2
87 | > 10 µM | COCCNCCC(=O)Nc1sc2c(c1-c1nc3ccc(-c4cccnc4F)cc3s1)CCNC2
88 | > 10 µM | COCCNCCC(=O)Nc1sc2c(c1-c1nc3cc(-c4ccc5ncccc5c4)ccc3s1)CCNC2

Row | Structure (SMILES) | IC50
89 | CC(C)NCCC(=O)Nc1sc2c(c1-c1nc3cc(C4=CCNCC4)ccc3s1)CCNC2 | < 0.3 µM

— ChEMBL document CHEMBL4476874, “Compounds for the modulation of myc activity” (2018)
